Test results taken from patent US20260207637A1, “MODULATOR FOR PROMOTING BINDING OF BUTYROPHILIN 3A1/2A1” (priority 2023, published 2026).

System: human plasma protein
Assay: Binding rate test of compounds and human plasma protein (equilibrium dialysis)
Format: in vitro ADME
Settings: 1 μM, equilibrium dialysis 6 hours, 37° C.
How it was run: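 Equilibrium dialysis of compound at 1 μM final in human plasma against 100 mM phosphate buffer with 0.002% Tween 80, shaken 6 hours at 37° C. Both sides quantified after acetonitrile/internal-standard precipitation. Binding calculated as 1 − free fraction, where free fraction = buffer/plasma concentration ratio.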

Compound: C/C(=C\CC[P@@](=O)(N[C@@H](C)C(=O)O[C@@H]1CCOC1)Oc1ccccc1)CO [Compound 19, (R)-tetrahydrofuran-3-yl ((S)-((R)-5-hydroxy-4-methylpent-3-en-1-yl)(phenoxy)phosphoryl)-L-alaninate]
- human plasma protein binding rate: 64.6%
